How the values were obtained:
[1] = biological target: GDP-bound KRAS wild-type protein (Homo sapiens, UniProt P01116); assay: Binding to KRAS by surface plasmon resonance (SPR), Single Cycle Kinetics; details: SPR, Single Cycle Kinetics, GDP-bound KRAS wild-type protein; read-out: KRAS KD
[2] = biological target: GDP-bound HRAS wild-type protein (Homo sapiens, UniProt P01112); assay: Binding to HRAS by surface plasmon resonance (SPR), Single Cycle Kinetics; details: SPR, GDP-bound HRAS wild-type protein vs GDP-bound KRAS wild-type protein
[3] = biological target: GDP-bound NRAS wild-type protein (Homo sapiens, UniProt P01111); assay: Binding to NRAS by surface plasmon resonance (SPR), Single Cycle Kinetics; details: SPR, GDP-bound NRAS wild-type protein vs GDP-bound KRAS wild-type protein
Chain of GDP-bound NRAS wild-type protein (P01111 whole entry): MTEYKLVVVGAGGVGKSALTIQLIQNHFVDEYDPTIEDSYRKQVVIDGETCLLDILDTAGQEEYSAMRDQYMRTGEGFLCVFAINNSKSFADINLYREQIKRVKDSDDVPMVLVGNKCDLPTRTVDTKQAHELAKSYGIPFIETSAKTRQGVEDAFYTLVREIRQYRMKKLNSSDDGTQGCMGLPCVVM

Chain of GDP-bound HRAS wild-type protein (P01112 whole entry): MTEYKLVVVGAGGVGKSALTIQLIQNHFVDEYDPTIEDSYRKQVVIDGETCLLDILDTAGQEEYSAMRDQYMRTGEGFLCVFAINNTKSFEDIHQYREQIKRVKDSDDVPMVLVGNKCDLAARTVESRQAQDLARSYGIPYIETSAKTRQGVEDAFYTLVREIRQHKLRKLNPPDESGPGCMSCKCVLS
Chain of GDP-bound KRAS wild-type protein (P01116 whole entry): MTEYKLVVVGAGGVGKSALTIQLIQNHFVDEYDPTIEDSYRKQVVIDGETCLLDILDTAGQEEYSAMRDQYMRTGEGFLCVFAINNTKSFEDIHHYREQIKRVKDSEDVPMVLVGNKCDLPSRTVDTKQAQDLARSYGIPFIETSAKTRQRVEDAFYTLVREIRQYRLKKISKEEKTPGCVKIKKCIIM

C#CC[C@H]1C(=O)N[C@@H]([C@@H](C)CC)C(=O)N(C)CC(=O)N(C)[C@H]2C/C=C\CCN(C2=O)[C@@H](Cc2ccc(C(F)(F)F)cc2)C(=O)N(C)CC(=O)N[C@@H](CCc2cc(F)c(C(F)(F)F)c(F)c2)C(=O)N2C[C@H](OCC)C[C@H]2C(=O)NC2(CC(C)(C)C2)C(=O)N(C)[C@@H](C2CCCC2)C(=O)N(C)[C@H](C(=O)N(C)CC)CC(=O)N1C [PP2073]
Kd [1]: 78 pM
HRAS/KRAS (ratio of KD value for HRAS to KD value for KRAS) [2]: A (a compound having 10 or more and less than 20 is denoted as A)
NRAS/KRAS (ratio of KD value for NRAS to KD value for KRAS) [3]: A (a compound having 10 or more and less than 20 is denoted as A)

C#CC[C@H]1C(=O)N[C@@H]([C@@H](C)CC)C(=O)N(C)CC(=O)N(C)[C@H]2C/C=C\CCN(C2=O)[C@@H](Cc2ccc(C(F)(F)F)cc2)C(=O)N(C)CC(=O)N[C@@H](CCc2cc(F)c(C(F)(F)F)c(F)c2)C(=O)N2C[C@H](OCC)C[C@H]2C(=O)NC2(CC(C)(C)C2)C(=O)N(C)[C@@H](C2CCCC2)C(=O)N(C)[C@H](C(=O)N(C)CCC)CC(=O)N1C [PP2074]
Kd [1]: 110 pM
HRAS/KRAS (ratio of KD value for HRAS to KD value for KRAS) [2]: A (a compound having 10 or more and less than 20 is denoted as A)
NRAS/KRAS (ratio of KD value for NRAS to KD value for KRAS) [3]: A (a compound having 10 or more and less than 20 is denoted as A)

C#CC[C@H]1C(=O)N[C@@H]([C@@H](C)CC)C(=O)N(C)CC(=O)N(C)[C@H]2C/C=C\CCN(C2=O)[C@@H](Cc2ccc(C(F)(F)F)cc2)C(=O)N(C)CC(=O)N[C@@H](CCc2cc(F)c(C(F)(F)F)c(F)c2)C(=O)N2C[C@@H](C)C[C@H]2C(=O)NC2(CC(C)(C)C2)C(=O)N(C)[C@@H](C2CCCC2)C(=O)N(C)[C@H](C(=O)N(C)CC)CC(=O)N1C [PP2075]
Kd [1]: 220 pM
HRAS/KRAS (ratio of KD value for HRAS to KD value for KRAS) [2]: A (a compound having 10 or more and less than 20 is denoted as A)
NRAS/KRAS (ratio of KD value for NRAS to KD value for KRAS) [3]: A (a compound having 10 or more and less than 20 is denoted as A)

C#CC[C@H]1C(=O)N[C@@H]([C@@H](C)CC)C(=O)N(C)CC(=O)N(C)[C@H]2C/C=C\CCN(C2=O)[C@@H](Cc2ccc(C(F)(F)F)cc2)C(=O)N(C)CC(=O)N[C@@H](CCc2cc(F)c(C(F)(F)F)c(F)c2)C(=O)N2C[C@@H](C)C[C@H]2C(=O)NC2(CC(C)(C)C2)C(=O)N(C)[C@@H](C2CCCC2)C(=O)N(C)[C@H](C(=O)N(C)CCC)CC(=O)N1C [PP2076]
Kd [1]: 390 pM
HRAS/KRAS (ratio of KD value for HRAS to KD value for KRAS) [2]: A (a compound having 10 or more and less than 20 is denoted as A)
NRAS/KRAS (ratio of KD value for NRAS to KD value for KRAS) [3]: A (a compound having 10 or more and less than 20 is denoted as A)

CCCN(C)C(=O)[C@@H]1CC(=O)N(C)[C@@H](C(C)C)C(=O)N[C@@H]([C@@H](C)CC)C(=O)N(C)CC(=O)N(C)[C@H]2C/C=C\CCN(C2=O)[C@@H](Cc2ccc(C(F)(F)F)cc2)C(=O)N(C)CC(=O)N[C@@H](CCc2cc(F)c(C(F)(F)F)c(F)c2)C(=O)N2C[C@@H](C)C[C@H]2C(=O)NC2(CCC2)C(=O)N(C)[C@@H](C2CCCC2)C(=O)N1C [PP2079]
Kd [1]: 290 pM
HRAS/KRAS (ratio of KD value for HRAS to KD value for KRAS) [2]: A (a compound having 10 or more and less than 20 is denoted as A)
NRAS/KRAS (ratio of KD value for NRAS to KD value for KRAS) [3]: A (a compound having 10 or more and less than 20 is denoted as A)

CC[C@H](C)[C@@H]1NC(=O)[C@H](C2CC2)N(C)C(=O)C[C@@H](C(=O)N(C)CC)N(C)C(=O)[C@H](C2CCCC2)N(C)C(=O)C2(CCC2)NC(=O)[C@@H]2C[C@H](C)CN2C(=O)[C@H](CCc2cc(F)c(C(F)(F)F)c(F)c2)NC(=O)CN(C)C(=O)[C@H](Cc2ccc(C(F)(F)F)cc2)N2CC/C=C\C[C@@H](C2=O)N(C)C(=O)CN(C)C1=O [PP2080]
Kd [1]: 93 pM
HRAS/KRAS (ratio of KD value for HRAS to KD value for KRAS) [2]: A (a compound having 10 or more and less than 20 is denoted as A)
NRAS/KRAS (ratio of KD value for NRAS to KD value for KRAS) [3]: A (a compound having 10 or more and less than 20 is denoted as A)

CCCN(C)C(=O)[C@@H]1CC(=O)N(C)[C@@H](C2CC2)C(=O)N[C@@H]([C@@H](C)CC)C(=O)N(C)CC(=O)N(C)[C@H]2C/C=C\CCN(C2=O)[C@@H](Cc2ccc(C(F)(F)F)cc2)C(=O)N(C)CC(=O)N[C@@H](CCc2cc(F)c(C(F)(F)F)c(F)c2)C(=O)N2C[C@@H](C)C[C@H]2C(=O)NC2(CCC2)C(=O)N(C)[C@@H](C2CCCC2)C(=O)N1C [PP2081]
Kd [1]: 120 pM
HRAS/KRAS (ratio of KD value for HRAS to KD value for KRAS) [2]: A (a compound having 10 or more and less than 20 is denoted as A)
NRAS/KRAS (ratio of KD value for NRAS to KD value for KRAS) [3]: A (a compound having 10 or more and less than 20 is denoted as A)

CCCN(C)C(=O)[C@@H]1CC(=O)N(C)[C@@H](C2CCC2)C(=O)N[C@@H]([C@@H](C)CC)C(=O)N(C)CC(=O)N(C)[C@H]2C/C=C\CCN(C2=O)[C@@H](Cc2ccc(C(F)(F)F)cc2)C(=O)N(C)CC(=O)N[C@@H](CCc2cc(F)c(C(F)(F)F)c(F)c2)C(=O)N2C[C@@H](C)C[C@H]2C(=O)NC2(CCC2)C(=O)N(C)[C@@H](C2CCCC2)C(=O)N1C [PP2083]
Kd [1]: 220 pM
HRAS/KRAS (ratio of KD value for HRAS to KD value for KRAS) [2]: B (a compound having 3 or more and less than 10 is denoted as B)
NRAS/KRAS (ratio of KD value for NRAS to KD value for KRAS) [3]: A (a compound having 10 or more and less than 20 is denoted as A)

C#CCN1CC(=O)N(C)[C@H]2C/C=C\CCN(C2=O)[C@@H](Cc2ccc(C(F)(F)F)cc2)C(=O)N(C)CC(=O)N[C@@H](CCc2cc(F)c(C(F)(F)F)c(F)c2)C(=O)N2C[C@H](OCC)C[C@H]2C(=O)NC2(CC(C)(C)C2)C(=O)N(C)[C@@H](C2CCCC2)C(=O)N(C)[C@H](C(=O)N(C)C)CC(=O)N(C)[C@@H](CC)C(=O)N[C@@H]([C@@H](C)CC)C1=O [PP2087]
Kd [1]: 150 pM
HRAS/KRAS (ratio of KD value for HRAS to KD value for KRAS) [2]: A (a compound having 10 or more and less than 20 is denoted as A)
NRAS/KRAS (ratio of KD value for NRAS to KD value for KRAS) [3]: A (a compound having 10 or more and less than 20 is denoted as A)

CCC[C@H]1C(=O)N[C@@H]([C@@H](C)CC)C(=O)N(C2CC2)CC(=O)N(C)[C@H]2C/C=C\CCN(C2=O)[C@@H](Cc2ccc(C)cc2)C(=O)N(C)CC(=O)N[C@@H](CCc2cc(F)c(C(F)(F)F)c(F)c2)C(=O)N2C[C@H](OCC)C[C@H]2C(=O)NC2(CC(C)(C)C2)C(=O)N(C)[C@@H](C2CCCC2)C(=O)N(C)[C@H](C(=O)N(C)C)CC(=O)N1C [PP2093, (2S,8S,12R,14S,20S,23S,27S,30S,36S,38Z)-20-cyclopentyl-32-cyclopropyl-8-[2-[3,5-difluoro-4-(trifluoromethyl)phenyl]ethyl]-12-ethoxy-N,N,3′,3′,4,19,22,26,35-nonamethyl-30-[(1S)-1-methylpropyl]-3,6,9,15,18,21,25,28,31,34,42-undecaoxo-27-propyl-2-(p-tolylmethyl)spiro[1,4,7,10,16,19,22,26,29,32,35-undecazatricyclo[34.5.1.0^10,14]dotetracont-38-ene-17,1′-cyclobutane]-23-carboxamide]
Kd [1]: 330 pM
HRAS/KRAS (ratio of KD value for HRAS to KD value for KRAS) [2]: A (a compound having 10 or more and less than 20 is denoted as A)
NRAS/KRAS (ratio of KD value for NRAS to KD value for KRAS) [3]: A (a compound having 10 or more and less than 20 is denoted as A)

C=CCN1CC(=O)N(C)[C@H]2C/C=C\CCN(C2=O)[C@@H](Cc2ccc(C)cc2)C(=O)N(C)CC(=O)N[C@@H](CCc2cc(F)c(C(F)(F)F)c(F)c2)C(=O)N2C[C@H](OCC)C[C@H]2C(=O)NC2(CC(C)(C)C2)C(=O)N(C)[C@@H](C2CCCC2)C(=O)N(C)[C@H](C(=O)N(C)C)CC(=O)N(C)[C@@H](CCC)C(=O)N[C@@H]([C@@H](C)CC)C1=O [PP2094]
Kd [1]: 290 pM
HRAS/KRAS (ratio of KD value for HRAS to KD value for KRAS) [2]: A (a compound having 10 or more and less than 20 is denoted as A)
NRAS/KRAS (ratio of KD value for NRAS to KD value for KRAS) [3]: A (a compound having 10 or more and less than 20 is denoted as A)

C#CCN1CC(=O)N(C)[C@H]2C/C=C\CCN(C2=O)[C@@H](Cc2ccc(C)cc2)C(=O)N(C)CC(=O)N[C@@H](CCc2cc(F)c(C(F)(F)F)c(F)c2)C(=O)N2C[C@H](OCC)C[C@H]2C(=O)NC2(CC(C)(C)C2)C(=O)N(C)[C@@H](C2CCCC2)C(=O)N(C)[C@H](C(=O)N(C)C)CC(=O)N(C)[C@@H](CCC)C(=O)N[C@@H]([C@@H](C)CC)C1=O [PP2095]
Kd [1]: 150 pM
HRAS/KRAS (ratio of KD value for HRAS to KD value for KRAS) [2]: A (a compound having 10 or more and less than 20 is denoted as A)
NRAS/KRAS (ratio of KD value for NRAS to KD value for KRAS) [3]: A (a compound having 10 or more and less than 20 is denoted as A)

CCCN1CC(=O)N(C)[C@H]2C/C=C\CCN(C2=O)[C@@H](Cc2ccc(C)cc2)C(=O)N(C)CC(=O)N[C@@H](CCc2ccc(C(F)(F)F)c(OC)c2)C(=O)N2C[C@H](OCC)C[C@H]2C(=O)NC2(CC(C)(C)C2)C(=O)N(C)[C@@H](C2CCCC2)C(=O)N(C)[C@H](C(=O)N(C)C)CC(=O)N(C)[C@@H](CC)C(=O)N[C@@H]([C@@H](C)CC)C1=O [PP2096]
Kd [1]: 420 pM
HRAS/KRAS (ratio of KD value for HRAS to KD value for KRAS) [2]: A (a compound having 10 or more and less than 20 is denoted as A)
NRAS/KRAS (ratio of KD value for NRAS to KD value for KRAS) [3]: A (a compound having 10 or more and less than 20 is denoted as A)

C=CCN1CC(=O)N(C)[C@H]2C/C=C\CCN(C2=O)[C@@H](Cc2ccc(C)cc2)C(=O)N(C)CC(=O)N[C@@H](CCc2ccc(C(F)(F)F)c(OC)c2)C(=O)N2C[C@H](OCC)C[C@H]2C(=O)NC2(CC(C)(C)C2)C(=O)N(C)[C@@H](C2CCCC2)C(=O)N(C)[C@H](C(=O)N(C)C)CC(=O)N(C)[C@@H](CCC)C(=O)N[C@@H]([C@@H](C)CC)C1=O [PP2098]
Kd [1]: 200 pM
HRAS/KRAS (ratio of KD value for HRAS to KD value for KRAS) [2]: A (a compound having 10 or more and less than 20 is denoted as A)
NRAS/KRAS (ratio of KD value for NRAS to KD value for KRAS) [3]: A (a compound having 10 or more and less than 20 is denoted as A)

From patent US20240158446A1, “CYCLIC COMPOUND HAVING SELECTIVE INHIBITORY ACTION ON KRAS OVER HRAS AND NRAS” (CHUGAI SEIYAKU KABUSHIKI KAISHA, priority 2021, published 2024)
